“Also recorded” adds a separate entry of the source.
Key:
[1] = single oral dose; cited from earlier work
[2] = in vivo; cited from earlier work
TGR5 [3] = target: T1, TGR5 (Homo sapiens, UniProt Q8TDU6); assay: cAMP assay in HEK293 overexpressing TGR5; format: cell-based; parameters: expressed in transfected cells; host or cells: HEK293 overexpressing TGR5; conditions: HEK293 cells, in vitro
T1 sequence (Q8TDU6 1-330): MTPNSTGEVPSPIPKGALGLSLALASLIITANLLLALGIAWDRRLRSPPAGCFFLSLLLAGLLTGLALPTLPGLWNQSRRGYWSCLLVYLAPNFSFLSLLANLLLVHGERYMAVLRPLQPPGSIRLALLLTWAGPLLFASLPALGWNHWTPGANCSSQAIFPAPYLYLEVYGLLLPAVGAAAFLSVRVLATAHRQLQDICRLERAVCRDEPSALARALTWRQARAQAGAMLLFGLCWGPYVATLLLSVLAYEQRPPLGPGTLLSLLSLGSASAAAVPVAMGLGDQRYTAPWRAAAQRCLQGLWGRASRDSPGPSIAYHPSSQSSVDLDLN
Protocol: (§1) Data analysis to determine EC50 values was performed with GraphPad Prism software using a cAMP standard curve and sigmoidal dose-response (variable slope) equation based on dose-response curves with tested compounds.
as §1

TGR5 [4] = target: T1, TGR5; conditions: HEK293 cells with human TGR5, pCRE-Luc; 0.1-50 μM test concentrations
Protocol: HEK293 overexpressing TGR5 cells were transfected 100 ng pCRE-luc reporter along with 10 ng pCMV-beta-galactosidase by HiPerfect (Qiagen).
Complexes were evaluated for their ability to activate TGR5 at 0.1, 0.5, 1, 5.0, 10, 30, and 50 μM test concentrations.
Cell Culture: HEK293 and HEK293-TGR5 overexpressing cells were cultured in high glucose Dulbecco's modified Eagle's medium (DMEM, CELLGRO®, Manassas, Va.) with L-glutamine supplemented with 10% (vol/vol) heat-inactivated fetal bovine serum (Gemini Bio-Products, West Sacramento, Calif.). TGR5-overexpressing HEK293 cells were maintained in G418-containing media until plating. Cells were plated in 24-well plates (5×10^5 cells/well) 24 h before transfection. Prior to transfection, cells were rinsed with PBS, and media was replaced with DMEM without phenol red supplemented with 10% super-stripped FBS.
TGR5 and FXR Luciferase Assay: To evaluate TGR5 activity of compounds, cells were transfected 100 ng pCRE-luc reporter along with pCMV-galactosidase (10 ng) as an internal control for normalization of transfection efficiency. Plasmids were complexed with 2 mL of FUGENE® 6 reagent (Promega, Madison, Wis.) in OPTIMEM® (Invitrogen, Carlsbad, Calif.) and cells were transfected for 18 h. The following day, cells were treated with vehicle and appropriate ligand as indicated. […]

db/db mice = assay: 5-week treatment of diabetic db/db mice (body weight, fasting glucose, liver and kidney weight, HbA1c); format: in vivo, mouse; conditions: for significance of the effect in body weight loss: 30 mg/kg BW (0.057 mmol), 5 weeks
Protocol: FIG. 8 Effect on body weight of administration of ligand and complex administered […] for 5 weeks in db/db mice (seven per group), with vehicle controls.
For each experiment, there were 8 groups of mice representing the different treatments. […] Eleven-week old male normal and high-fat fed C57BL/6J mice and 7-week old male B6.BKS-Lepr^db (db/db) mice (The Jackson Laboratory, Bar Harbor, Me.) were acclimatized for at least one week on a 12-hour light/dark cycle at 68-72° F., then fed either a standard (10% fat kcal) or high-fat diet containing 60 kcal % fat (Research Diets, Inc., New Brunswick, N.J.) for the duration of the study. All animals were access to their respective diets and water ad libitum. […] For each group, each mouse was given the drugs via i.p. injection, three times a week (Monday, Wednesday, Friday) for a total duration of 5 weeks. Before, and in the course of treatment, body weight, water and food consumption (by weighing before and after weights of water bottles and leftover food in individual cages) were measured 2×per week, while blood glucose measurements were conducted weekly via tail-bleeding while on physical restraint using disposable cone-shaped plastic holders (Kent Scientific). Various tissues (liver, skeletal muscles and adipose tissues) and blood (for lipid, insulin and glucose measurements), were collected and analyzed at the end of the experiment. Before termination of the study, glucose tolerance tests were performed on each mouse on the last week of treatment. For the glucose tolerance test (GTT), after an overnight fast, mice were injected intraperitoneally with glucose (2 g/kg body weight). […] Mice were euthanized by CO2 asphyxiation according to the Association for Assessment and Accreditation of Laboratory Animal Care International guidelines. The different experimental groups had at least 8 animals each.

CN(C)C(=N)NC(=N)N [Metformin, N,N-dimethylbiguanidine]
time until undetectable in blood plasma [1]: ≤ 24 h | decrease of the level of HbA1c [2]: 1-2% | direct activation of TGR5 to induce cAMP formation (TGR5 [3]): not a ligand for the TGR5; also recorded: did not directly activate TGR5

Metformin-OA [DY310]
potency in luciferase assays against TGR5 compared to the native TGR5 agonist (TGR5 [4]): greater potency in luciferase assays than oleanolic acid

metformin-6eCDCA complex [DY305]
significance of the effect in body weight loss (db/db mice; male db/db mice): not significant | effect on body weight (db/db mice; male db/db mice, daily for 5 weeks): effective in body weight loss

metformin-6eUDCA complex [DY306]
effect on increase of HbA1c (db/db mice; db/db mice): dose dependently blocked the increase of HbA1c | glycemic control (db/db mice; db/db mouse model): improved glycemic control | significance of the effect in body weight loss (db/db mice; male db/db mice): not significant
